Measured values: patent US4178449A, “Pyrazolo[1,5-a]pyrimidines and imidazo-[1,5-a]pyrimidines” (American Cyanamid Company, priority 1978, dated 1979)

Columns and labels:
[1] = test system: conflict situation (shocks taken) in Wistar strain rats; assay: non-conditioned passive avoidance (conflict) procedure; type: in vivo, rat; parameters: key: Active: The test compounds are considered active if the shocks received by the test group are significantly different from the control group by the Mann-Whitney U test; settings: oral or intraperitoneal, single or graded doses, tested at 30 or 60 minutes, 5 minute interval
Description: Another test which has been used to assess anti-anxiety effect is a non-conditioned passive avoidance procedure described by J. R. Vogel, B. Beer and D. E. Clody, "A Simple and Reliable Conflict Procedure for Testing Anti-Anxiety Agents", Psychopharmacologia, 21, 1-7 (1971). A conflict situation is induced in rats by a modification of this method. Groups of 6 naive, Wistar strain rats, weighing 200-240 g. each were deprived of water for 48 hours and food for 24 hours. The test compounds were administered in single or graded, oral or intraperitoneal doses suspended in a 2% starch vehicle containing 0.5% v/v polyethylene glycol and one drop of Polysorbate 80. Control animals received the vehicle alone. At 30 or 60 minutes each rat was placed in individual black plexiglass chambers. A 10% dextrose solution was available ad libitum from a tap located in the rear of the chamber. A 0.3 milliampere constant current 60 Hz pulsed DC shocking current was established between the stainless steel grid floor and the tap. After 20 seconds of non-shocked drinking, an alternating 5 second "shock-on" and 5 second "shock-off" cycle began and continued for a total of 5 minutes. The number of shocks taken by each rat during the 5 minute interval was recorded and compared to a control group. […]

[2] = test system: 3H-diazepam binding to the brain receptors (rat frontal cortex P2-synaptosomal fraction); assay: inhibition of 3H-diazepam binding to brain receptors; parameters: key: Active: A compound which exhibits the ability to inhibit binding by ≥20% is considered to be active; settings: 3H-diazepam (1.5 mM.), 20 minutes in ice
Description: Another test used to measure anxiolytic activity comprises measurement of the ability of test compounds to inhibit the binding of ^3 H-diazepam to the brain receptors of warm-blooded animals. The test is described by R. F. Squires in Nature, 266, No. 21 page 732 (April 1977) and H. Mohler and T. Okada, Science, 198, 849 (1977). A modification of this test was employed wherein the animals used were male albino rats of the Wistar strain, weighing 150-200 g. each from Royalhart Farms. Diazepam (methyl-^3 H) was obtained from New England Nuclear. The test compounds were solubilized in either dimethylformamide, acetic acid, ethanol or hydrochloric acid. Frontal cortex of rats was homogenized gently in 20 volumes of ice-cold 0.32 M. sucrose, centrifuged twice at 1000 g. for 10 minutes and then recentrifuged at 30,000 g. for 20 minutes to produce a crude P2 -synaptosomal fraction. The P2 -fraction was resuspended, twice the original volume, in hypotonic 50 mM. Tris.HCl (pH 7.4). The binding assay consisted of 300 μl. of the P2 -fraction suspension (0.350 mg.), 100 μl. of test drug and 100 μl. of ^3 H-diazepam ([…].),. which was added to 1.5 ml. of 50 mM. Tris.HCl (pH 7.4). Non-specific binding controls and total binding controls received 100 μl. of diazepam (3 μm.) and 100 μl. of deionized water, respectively, in place of the test compound. Incubation for 20 minutes proceeded in ice and was terminated by filtration, under vacuum, through Whatman GF/C glass fiber filters. The filters were washed twice with 5 ml. of ice-cold 50 mM. Tris.HCl (pH 7.4) and placed in scintillation vials. After drying at 50°-60° C. for 30 minutes, 10 ml. of Beckman Ready-Solve HP was added and the radioactivity determined in a Beckman Scintillation Counter. The percentage of inhibition of diazepam binding is calculated for each compound. […] Representative compounds of the present invention which were active when tested by the diazepam binding assay are set forth in Table III below.

[3] = test system: pentylenetetrazole clonic seizures in rats; assay: protection from convulsions resulting from the administration of pentylenetetrazole; type: in vivo, rat; parameters: key: Active: The test compounds are considered active if they protect 50% or more of the rats from clonic seizures; settings: oral or intraperitoneal, single or graded doses, pentylenetetrazole 21 to 23 mg./kg. i.v. at 30 or 60 minutes
Description: The anti-anxiety properties of the novel compounds of the present invention have been established in a test which indicates anxiolytic activity by the measure of protection from convulsions resulting from the administration of pentylenetetrazole. Single or graded dose levels of the test compounds were administered orally or intraperitoneally in a 2% starch vehicle, to groups of at least 4 rats. At 30 or 60 minutes, the rats were treated intravenously with pentylenetetrazole at a dose of 21 to 23 mg./kg. of body weight. This dose is estimated to cause clonic seizures in 99% of unprotected rats. The test compounds are considered active if they protect 50% or more of the rats from clonic seizures. It has been reported [R. T. Hill and D. H. Tedeschi, "Animal Testing and Screening Procedures in Evaluating Psychotropic Drugs" in "An Introduction to Psychopharmacology", Eds. R. R. Rech and K. E. Moore, Raven Press, New York, pp. 237-288 (1971)] that there is a high degree of correlation between antagonism of pentylenetetrazole seizures in rats and anti-anxietyeffects in higher warm-blooded animals.

CCOC(=O)c1cnn2c(-c3cccc(C(F)(F)F)c3)ccnc12 [Example 16, 7-(α,α,α-Trifluoro-m-tolyl)pyrazolo[1,5-a]pyrimidine-3-carboxylic acid ethyl ester]
Active: Result (number of shocks taken vs control, conflict procedure) [1] | Result (inhibition of 3H-diazepam binding) [2] | Result (protection from pentylenetetrazole clonic seizures) [3]

N#Cc1ncn2c(-c3cccc(C(F)(F)F)c3)ccnc12 [Example 29, 4-(α,α,α-Trifluoro-m-tolyl)imidazo[1,5-a]pyrimidine-8-carbonitrile]
Active: Result (number of shocks taken vs control, conflict procedure) [1] | Result (inhibition of 3H-diazepam binding) [2] | Result (protection from pentylenetetrazole clonic seizures) [3]
